Experimental data published in patent publication US5200505A, “R106 compounds” (Takara Shuzo Co., Ltd., priority 1990, dated 1993).
Numbered stars: 1 amine (or outer) side, 2 acyl side, 3 side chain; on linkers, the order of the positions; unused ones are H or OH. Square brackets hold non-standard residues; d marks the D form. Peptide text beside a SMILES is read from it. NMePhe(3-F) = CN[C@@H](Cc1cccc(F)c1)C(=O)O; NMePhe(2-F) = CN[C@@H](Cc1ccccc1F)C(=O)O; NMeVal(β-OH) = CN[C@H](C(=O)O)C(C)(C)O; Phe(3-F) = N[C@@H](Cc1cccc(F)c1)C(=O)O; Phe(2-F) = N[C@@H](Cc1ccccc1F)C(=O)O; NMeY = CN[C@@H](Cc1ccc(O)cc1)C(=O)O; NMeF = CN[C@@H](Cc1ccccc1)C(=O)O; aIle = CC[C@@H](C)[C@H](N)C(=O)O; X1 = CCC(C)C(O[*:1])C(=O)[*:2]; NMeV = CN[C@H](C(=O)O)C(C)C; NMeS = CN[C@@H](CO)C(=O)O; Thz = O=C(O)[C@@H]1CSCN1

Test: Solubility in water
Assay type: physicochemical
Settings: compared with antibiotics R106
With `CCC(C)C1OC(=O)[C@H](C(C)(C)O)N(C)C(=O)[C@H](CC(C)C)NC(=O)[C@H](C(C)C)N(C)C(=O)[C@H]([C@H](C)CC)NC(=O)[C@@H]2CCCN2C(=O)[C@H](Cc2ccccc2F)N(C)C(=O)[C@H](Cc2ccccc2F)NC(=O)[C@H](C(C)C)N(C)C1=O` (stereo partly drawn) [Compound 1] (cyclo(L[NMeVal(β-OH)][X1][NMeV][Phe(2-F)][NMePhe(2-F)]P[aIle][NMeV])) the solubility in water was “higher”. In the case of `CCC(C)C1OC(=O)[C@H](C(C)(C)O)N(C)C(=O)[C@H](CC(C)C)NC(=O)[C@H](C(C)C)N(C)C(=O)[C@H]([C@H](C)CC)NC(=O)[C@@H]2CCCN2C(=O)[C@H](Cc2cccc(F)c2)N(C)C(=O)[C@H](Cc2cccc(F)c2)NC(=O)[C@H](C(C)C)N(C)C1=O` (stereo partly drawn) [Compound 2] (cyclo(L[NMeVal(β-OH)][X1][NMeV][Phe(3-F)][NMePhe(3-F)]P[aIle][NMeV])), the solubility in water is reported as “higher”. With `CCC(C)C1OC(=O)[C@H](C(C)(C)O)N(C)C(=O)[C@H](CC(C)C)NC(=O)[C@H](C(C)C)N(C)C(=O)[C@H]([C@H](C)CC)NC(=O)[C@@H]2CCCN2C(=O)[C@H](Cc2ccc(O)cc2)N(C)C(=O)[C@H](Cc2ccc(O)cc2)NC(=O)[C@H](C(C)C)N(C)C1=O` (stereo partly drawn) [Compound 3] (cyclo(L[NMeVal(β-OH)][X1][NMeV]Y[NMeY]P[aIle][NMeV])) the solubility in water was “higher”. In the case of `CCC(C)C1OC(=O)[C@H](C(C)(C)O)N(C)C(=O)[C@H](CC(C)C)NC(=O)[C@H](C(C)C)N(C)C(=O)[C@H]([C@H](C)CC)NC(=O)[C@@H]2CSCN2C(=O)[C@H](Cc2ccccc2)N(C)C(=O)[C@H](Cc2ccccc2)NC(=O)[C@H](C(C)C)N(C)C1=O` (stereo partly drawn) [Compound 5] (cyclo(F[NMeF][Thz][aIle][NMeV]L[NMeVal(β-OH)][X1][NMeV])), the solubility in water is reported as “higher”. With `CCC(C)C1OC(=O)[C@H](C(C)(C)O)N(C)C(=O)[C@H](CC(C)C)NC(=O)[C@H](C(C)C)N(C)C(=O)[C@H]([C@H](C)CC)NC(=O)[C@@H]2CCCN2C(=O)[C@H](CO)N(C)C(=O)[C@H](Cc2ccccc2)NC(=O)[C@H](C(C)C)N(C)C1=O` (stereo partly drawn) [Compound 9] (cyclo(F[NMeS]P[aIle][NMeV]L[NMeVal(β-OH)][X1][NMeV])) the solubility in water was “higher”.
